From US8372867B2, “Insecticidal aryl isoxazoline derivatives” (Bayer CropScience AG, priority 2007, dated 2013)

What was measured:
Aulacophora femoralis = test: Test against Aulacophora femoralis (leaf dip); type: in vivo; conditions: 100 ppm of the active compound; second instar larvae; after 7 days
Procedure: (§1) To prepare an appropriate formulation of an active compound, 1 part by weight of the active compound was mixed with the aforementioned amount of the solvent containing the aforementioned amount of the emulsifier, and the mixture was diluted to a prescribed concentration with water.
Leaves of cucumbers were soaked in a diluted aqueous solution of the prescribed concentration of an active compound prepared in the same manner as in the aforementioned tests, air-dried, and placed a plastic cup containing sterilized black soil. Into this cup, 5 larvae of Aulacophora femoralis at second instar were then released. After 7 days, the number of dead larvae was counted to calculate the death rate.

Spodoptera litura = test: Test against larva of Spodoptera litura (leaf dip); type: in vivo; conditions: 100 ppm of the active compound; third instar larvae; after 7 days
Procedure: Solvent: Dimethylformamide 3 parts by weight
Emulsifier: Polyoxyethylene alkyl phenyl ether 1 part by weight
as §1
Leaves of sweet potate were soaked in the test agent diluted to a prescribed concentration with water, air-dried, and placed in a dish of 9 cm in diameter. Into this dish, 10 larvae of Spodoptera litura at the third instar were released and kept in a room at constant temperature of 25° C. After 2 and 4 days, more leaves of sweet potato were added, and the number of dead larvae after 7 days was counted to calculate the death rate. In this test, the test results are presented as an average of the results of two dishes per section.

Lucilia cuprina larvae = test: whole plant or invertebrate; conditions: in Equus caballus, read-out: activity (mortality in %)
Musca domestica = test: whole plant or invertebrate; conditions: read-out: activity (mortality in %)

## CC(=O)NCc1ccc(C2=NOC(c3cccc([N+](=O)[O-])c3)(C(F)(F)F)C2)cc1Br (stereo not shown) [1-102]
Aulacophora femoralis
  death rate: 100%

## O=C(NCc1ccc(C2=NOC(c3cc(Cl)cc(Cl)c3)(C(F)(F)F)C2)cc1Br)c1ccccc1Br (stereo not shown) [1-34]
Spodoptera litura
  death rate: 100%
Aulacophora femoralis
  death rate: 100%

## O=C(NCc1ccc(C2=NOC(c3cc(Cl)cc(Cl)c3)(C(F)(F)F)C2)cc1Br)c1ccccc1 (stereo not shown) [1-24]
Spodoptera litura
  death rate: 100%
Aulacophora femoralis
  death rate: 100%

## O=C(NCc1ccc(C2=NOC(c3cc(Cl)cc(Cl)c3)(C(F)(F)F)C2)cc1Br)c1ccccc1F (stereo not shown) [1-28]
Spodoptera litura
  death rate: 100%
Aulacophora femoralis
  death rate: 100%

## O=CNCc1ccc(C2=NOC(c3cc(Cl)cc(Cl)c3)(C(F)(F)F)C2)cc1Br (stereo not shown) [1-12]
Spodoptera litura
  death rate: 100%
Aulacophora femoralis
  death rate: 100%

## CC(=O)N(C)Cc1ccc(C2=NOC(c3cc(Cl)cc(Cl)c3)(C(F)(F)F)C2)cc1Br (stereo not shown) [1-46]
Spodoptera litura
  death rate: 100%
Aulacophora femoralis
  death rate: 100%

## CCC(=O)NCc1ccc(C2=NOC(c3cc(Cl)cc(Cl)c3)(C(F)(F)F)C2)cc1Br (stereo not shown) [1-19]
Spodoptera litura
  death rate: 100%
Aulacophora femoralis
  death rate: 100%

## CC(=O)NCc1ccc(C2=NOC(c3cc(Cl)cc(Cl)c3)(C(F)(F)F)C2)cc1I (stereo not shown) [1-59]
Spodoptera litura
  death rate: 100%
Aulacophora femoralis
  death rate: 100%

## CC(=O)NCc1ccc(C2=NOC(c3ccc(Cl)c(Cl)c3)(C(F)(F)F)C2)cc1Br (stereo not shown) [1-94]
Spodoptera litura
  death rate: 100%
Aulacophora femoralis
  death rate: 100%

## CC(=O)N(Cc1ccc(C2=NOC(c3cc(Cl)cc(Cl)c3)(C(F)(F)F)C2)cc1Br)N=C(C)C (stereo not shown) [1-90]
Spodoptera litura
  death rate: 100%

## CN(C)C(=O)NCc1ccc(C2=NOC(c3cc(Cl)cc(Cl)c3)(C(F)(F)F)C2)cc1Br (stereo not shown) [1-41]
Spodoptera litura
  death rate: 100%
Aulacophora femoralis
  death rate: 100%

## CC(=O)N(Cc1ccc(C2=NOC(c3cc(Cl)cc(Cl)c3)(C(F)(F)F)C2)cc1)C(C)=O (stereo not shown) [1-2]
Spodoptera litura
  death rate: 100%
Aulacophora femoralis
  death rate: 100%

## CC(=O)NCc1ccc(C2=NOC(c3ccc(C(F)(F)F)cc3)(C(F)(F)F)C2)cc1Br (stereo not shown) [1-100]
Spodoptera litura
  death rate: 100%
Aulacophora femoralis
  death rate: 100%

## O=C(NCc1ccc(C2=NOC(c3cc(Cl)cc(Cl)c3)(C(F)(F)F)C2)cc1Br)C(F)(F)F (stereo not shown) [1-23]
Spodoptera litura
  death rate: 100%
Aulacophora femoralis
  death rate: 100%

## Cc1ccccc1C(=O)NCc1ccc(C2=NOC(c3cc(Cl)cc(Cl)c3)(C(F)(F)F)C2)cc1Br (stereo not shown) [1-35]
Spodoptera litura
  death rate: 100%
Aulacophora femoralis
  death rate: 100%

## CC(=O)N(Cc1cccnc1)Cc1ccc(C2=NOC(c3cc(Cl)cc(Cl)c3)(C(F)(F)F)C2)cc1Br (stereo not shown) [1-16]
Spodoptera litura
  death rate: 100%
Aulacophora femoralis
  death rate: 100%

## CC(=O)NCc1ccc(C2=NOC(c3cc(Cl)cc(Cl)c3)(C(F)(F)F)C2)cc1 (stereo not shown) [1-1, N-{4-[5-(3,5-dichlorophenyl)-5-(trifluoromethyl)-4,5-dihydroisoxazol-3-yl]benzyl}acetamide]
Spodoptera litura
  death rate: 100%
Aulacophora femoralis
  death rate: 100%
Lucilia cuprina larvae
  mortality at 100 ppm: ≥ 80%
Musca domestica
  mortality at 100 ppm: ≥ 80%

## CNC(=O)NCc1ccc(C2=NOC(c3cc(Cl)cc(Cl)c3)(C(F)(F)F)C2)cc1Br (stereo not shown) [1-40]
Spodoptera litura
  death rate: 100%
Aulacophora femoralis
  death rate: 100%

## O=C(NCc1ccc(C2=NOC(c3cc(Cl)cc(Cl)c3)(C(F)(F)F)C2)cc1Br)c1ccc(Cl)cc1 (stereo not shown) [1-33]
Aulacophora femoralis
  death rate: 100%

## CC(=O)NCc1ccc(C2=NOC(c3cc(C(F)(F)F)cc(C(F)(F)F)c3)(C(F)(F)F)C2)cc1Br (stereo not shown) [1-101]
Spodoptera litura
  death rate: 100%
Aulacophora femoralis
  death rate: 100%

## CC(C)C(=O)NCc1ccc(C2=NOC(c3cc(Cl)cc(Cl)c3)(C(F)(F)F)C2)cc1Br (stereo not shown) [1-21]
Spodoptera litura
  death rate: 100%
Aulacophora femoralis
  death rate: 100%

## CC(=O)NCc1ccc(C2=NOC(c3cc(Cl)cc(Cl)c3)(C(F)(F)F)C2)cc1Br (stereo not shown) [1-13]
Spodoptera litura
  death rate: 100%
Aulacophora femoralis
  death rate: 100%

## CC(=O)NCc1ccc(C2=NOC(c3cccc(C#N)c3)(C(F)(F)F)C2)cc1Br (stereo not shown) [1-106]
Aulacophora femoralis
  death rate: 100%

## O=C(NCc1ccc(C2=NOC(c3cc(Cl)cc(Cl)c3)(C(F)(F)F)C2)cc1Br)c1ccccn1 (stereo not shown) [1-25]
Spodoptera litura
  death rate: 100%

## CC(=O)N(Cc1ccccn1)Cc1ccc(C2=NOC(c3cc(Cl)cc(Cl)c3)(C(F)(F)F)C2)cc1Br (stereo not shown) [1-15, N-{2-bromo-4-[5-(3,5-dichlorophenyl)-5-(trifluoromethyl)-4,5-dihydroisoxazol-3-yl]benzyl}-N-(pyridin-2-ylmethyl)acetamide]
Spodoptera litura
  death rate: 100%
Aulacophora femoralis
  death rate: 100%
Lucilia cuprina larvae
  mortality at 100 ppm: ≥ 80%
Musca domestica
  mortality at 100 ppm: ≥ 80%

## C=CC(=O)NCc1ccc(C2=NOC(c3cc(Cl)cc(Cl)c3)(C(F)(F)F)C2)cc1Br (stereo not shown) [1-36]
Spodoptera litura
  death rate: 100%
Aulacophora femoralis
  death rate: 100%

## CC(=O)NCc1ccc(C2=NOC(c3cc(Cl)cc(Cl)c3)(C(F)(F)F)C2)cc1Cl (stereo not shown) [1-58]
Spodoptera litura
  death rate: 100%
Aulacophora femoralis
  death rate: 100%

## CC(=O)NCc1ccc(C2=NOC(c3cccc(Cl)c3)(C(F)(F)F)C2)cc1Br (stereo not shown) [1-98]
Spodoptera litura
  death rate: 100%
Aulacophora femoralis
  death rate: 100%

## CCC(=O)N(Cc1ccc(C2=NOC(c3cc(Cl)cc(Cl)c3)(C(F)(F)F)C2)cc1)Cc1ccccn1 (stereo not shown) [1-6]
Spodoptera litura
  death rate: 100%
Aulacophora femoralis
  death rate: 100%

## O=CN(Cc1ccc(C2=NOC(c3cc(Cl)cc(Cl)c3)(C(F)(F)F)C2)cc1)Cc1ccccn1 (stereo not shown) [1-4]
Spodoptera litura
  death rate: 100%

## CC(=O)NCc1ccc(C2=NOC(c3cccc(C(F)(F)F)c3)(C(F)(F)F)C2)cc1Br (stereo not shown) [1-99]
Spodoptera litura
  death rate: 100%
Aulacophora femoralis
  death rate: 100%

## CC(=O)N(Cc1ccccn1)C(C#N)c1ccc(C2=NOC(c3cc(Cl)cc(Cl)c3)(C(F)(F)F)C2)cc1 (stereo not shown) [1-11, N-(cyano{4-[5-(3,5-dichlorophenyl)-5-(trifluoromethyl)-4,5-dihydroisoxazol-3-yl]phenyl}methyl)-N-(pyridin-2-ylmethyl)-acetamide]
Spodoptera litura
  death rate: 100%
Aulacophora femoralis
  death rate: 100%

## CC(=O)NCc1ccc(C2=NOC(C)(c3cc(Cl)cc(Cl)c3)C2)cc1Br (stereo not shown) [1-93]
Aulacophora femoralis
  death rate: 100%

## CC(=O)N(Cc1ccncc1)Cc1ccc(C2=NOC(c3cc(Cl)cc(Cl)c3)(C(F)(F)F)C2)cc1Br (stereo not shown) [1-17]
Spodoptera litura
  death rate: 100%
Aulacophora femoralis
  death rate: 100%

## CC(=O)NCc1ccc(C2=NOC(C)(c3cccc(F)c3)C2)cc1Br (stereo not shown) [1-97]
Spodoptera litura
  death rate: 100%
Aulacophora femoralis
  death rate: 100%

## CCCC(=O)NCc1ccc(C2=NOC(c3cc(Cl)cc(Cl)c3)(C(F)(F)F)C2)cc1Br (stereo not shown) [1-20]
Spodoptera litura
  death rate: 100%
Aulacophora femoralis
  death rate: 100%

## O=C(NCc1ccc(C2=NOC(c3cc(Cl)cc(Cl)c3)(C(F)(F)F)C2)cc1Br)c1ccncc1 (stereo not shown) [1-27]
Spodoptera litura
  death rate: 100%
Aulacophora femoralis
  death rate: 100%

## O=C(NCc1ccc(C2=NOC(c3cc(Cl)cc(Cl)c3)(C(F)(F)F)C2)cc1Br)c1cccc(Cl)c1 (stereo not shown) [1-32]
Spodoptera litura
  death rate: 100%
Aulacophora femoralis
  death rate: 100%

## CC(=O)NCc1ccc(C2=NOC(c3cc(Cl)cc(Cl)c3)(C(F)(F)F)C2)cc1F (stereo not shown) [1-57]
Spodoptera litura
  death rate: 100%
Aulacophora femoralis
  death rate: 100%

## CS(=O)(=O)NCc1ccc(C2=NOC(c3cc(Cl)cc(Cl)c3)(C(F)(F)F)C2)cc1Br (stereo not shown) [1-38]
Spodoptera litura
  death rate: 100%
Aulacophora femoralis
  death rate: 100%

## CSC(=O)NCc1ccc(C2=NOC(c3cc(Cl)cc(Cl)c3)(C(F)(F)F)C2)cc1Br (stereo not shown) [1-43]
Spodoptera litura
  death rate: 100%

## O=C(NCc1ccc(C2=NOC(c3cc(Cl)cc(Cl)c3)(C(F)(F)F)C2)cc1Br)c1cccnc1 (stereo not shown) [1-26]
Spodoptera litura
  death rate: 100%
Aulacophora femoralis
  death rate: 100%

## CC(=O)NCc1ccc(C2=NOC(c3cc(Cl)cc(Cl)c3)(C(F)(F)F)C2)cc1C#N (stereo not shown) [1-62]
Spodoptera litura
  death rate: 100%
Aulacophora femoralis
  death rate: 100%
